Series [1] in a line: Viability of HTB-157 fetal (normal) fibroblasts. In kind it is cell-based, human. The note with it: human, MTT. The method, then: (§1) To quantify cell death, around the time when significant and characteristic morphological changes took place, cells were pulse-labeled for 10 minutes with [^3H]thymidine to measure DNA activity as described elsewhere [Tomono, M. and Kiss, Z. (1995), “Ethanol enhances the stimulatory effects of insulin and insulin-like growth factor-I on DNA synthesis in NIH 3T3 fibroblasts,” Biochem. Biophys. Res. Commun. 208, 63-67]. Also, cells were collected as suspensions using trypsin, an established method in cell biology, followed by re-plating of cells in fresh tissue culture medium. If no viable cells were obtained after one week in culture, it meant that the cells at the time of re-plating were dead. Survival values obtained with untreated cells were considered 100%. For the determination of relative number of viable cells after treatments, in most cases the MTT assay was used. This calorimetric assay is based on the ability of living cells, but not dead cells, to reduce 3-(4,5-dimethyl thiazol-2-yl)-2,5-diphenyltetrazolium bromide [Carmichael, J, De Graff, W. G., Gazdar, A. F., Minna, J. D. and Mitchell, J. B. (1987), “Evaluation of tetrazolium-based semi-automated calorimetric assay: Assessment of chemosensitivity testing,” Cancer Res. 47, 936-942]. For this assay, cells were plated in 96-well plates, and the MTT assay was performed both in untreated and treated cell cultures. The MTT assay also was performed at the start of treatments to allow assessment of proliferation rates in the control and treated cell cultures.
(§2) NIH3T3, T47D, A-431, HT-29, and MEL-28 cells were cultured as indicated earlier. CaOV-3 human ovarian cancer cells were cultured in DMEM containing 10% FBS. ZR-75-1 human estrogen receptor-positive breast cancer cells were maintained in RPMI 1640 medium supplemented with 10% FBS. HTB-157 human fetal fibroblasts, MEL-24 human malignant melanoma cells, Hep G2 human hepatoblastoma cells, and CaCO-2 human colon adenocarcinoma cells were maintained in Eagles's MEM containing 10% FBS. MB-231 human estrogen receptor-negative breast cancer cells were maintained in Leibovitz's L-15 medium supplemented with 10% FBS. Cells were seeded into 96-well plates and treated at ˜70-90% confluency. Two hours prior to treatments the medium was changed for fresh 10% serum medium, and then the cells were incubated for 10 days in the absence (□) or presence of 50 μM CCDTHT ? or 100 μM CCDTHT (▪). The medium was changed and the cells were re-treated on days 3 and 6. The MTT assay was used to determine cell viability on day 10. The data, shown in FIG. 6, are the mean±std. dev. of 8 incubations in one experiment. (The experiment was repeated twice with similar results).
(§3) HTB-157, MEL-28, CaOV-3, T47D, and A-431 cells were maintained as indicated earlier. The 3A-SubE post crisis placenta cells (capable of unlimited proliferation) were maintained in Eagle's MEM containing 10% FBS. Cells were seeded into 96-well plates and treated at ˜70-90% confluency. Two hours before treatments the medium was changed for fresh 10% serum medium, and then cells were incubated for 48 hours in the absence (□) or presence of 50 μM CCDTHT ? or 100 μM CCDTHT (▪). Half of the cultures was analyzed by the MTT assay at this point, and the other half of the cultures was incubated for an additional 96 hours in fresh 10% serum-containing medium without CCDTHT followed by the MTT assay. The data, shown in FIG. 8, are the mean±std. dev. of 8 incubations in one experiment. (Similar results were obtained in another experiment).
(§4) HaCaT keratinocytes, frequently used immortalized model cells for studying psoriatic keratinocytes, and HTB-157 human fetus lung fibroblasts were cultured in 10% FBS-containing Dulbecco's modified Eagle's medium (DMEM). […]

In a further series the test system is HTB-157 cells. Kind of series: Viability of HTB-157 fetal (normal) fibroblasts. It is filed as cell-based, human. The procedure:
as §1, §2, §3, §4

The test system of the next series is CCF-STTG1 cells. Kind of series: Viability of CCF-STTG1 astrocytoma cells (MTT assay). It is filed as cell-based, human. As to conditions: 100-200 μM, 72 hours. The method, then: (§5) To quantify cell death, around the time when significant and characteristic morphological changes took place, cells were pulse-labeled for 10 minutes with [^3H]thymidine to measure DNA activity as described elsewhere [Tomono, M. and Kiss, Z. (1995), “Ethanol enhances the stimulatory effects of insulin and insulin-like growth factor-I on DNA synthesis in NIH 3T3 fibroblasts,” Biochem. Biophys. Res. Commun. 208, 63-67]. Also, cells were collected as suspensions using trypsin, an established method in cell biology, followed by re-plating of cells in fresh tissue culture medium. If no viable cells were obtained after one week in culture, it meant that the cells at the time of re-plating were dead. Survival values obtained with untreated cells were considered 100%. For the determination of relative number of viable cells after treatments, in most cases the MTT assay was used. This calorimetric assay is based on the ability of living cells, but not dead cells, to reduce 3-(4,5-dimethyl thiazol-2-yl)-2,5-diphenyltetrazolium bromide [Carmichael, J, De Graff, W. G., Gazdar, A. F., Minna, J. D. and Mitchell, J. B. (1987), “Evaluation of tetrazolium-based semi-automated calorimetric assay: Assessment of chemosensitivity testing,” Cancer Res. 47, 936-942]. For this assay, cells were plated in 96-well plates, and the MTT assay was performed both in untreated and treated cell cultures. […]
(Tetrazolium assays rely on reduction of a dye to a coloured formazan, in cell work by metabolically active cells.)

The test system of a further series is AN3CA cells. Kind of series: Viability of AN3CA endometrial adenocarcinoma cells (MTT assay). It is filed as cell-based, human. As to conditions: 100 μM, 72 hours. The procedure: as §5
Series [2] concerns HL-60, HT-168, PC-3 and T47D human tumor xenografts. Kind of series: Growth of HL-60, HT-168, PC-3 and T47D human tumor xenografts in mice. In kind it is in vivo, mouse. The method, then:
Tumor volume was calculated according to the generally accepted formula: V=a^2×b×π/6, where “a” and “b” mean the shortest and longest diameter, respectively, of the measured tumor.

For the compound `CC[N+](C)(CC)CCOCc1ccc2sc3ccccc3c(=O)c2c1.[I-]` [CCDTHT, N,N-diethyl-N-methyl-2-[(9-oxo-9H-thioxanthen-2-yl)methoxy]-ethanaminium iodide], the cytotoxicity at 10 days, 100 μM in series [1] (HTB-157 fetal (normal) fibroblasts, 100 μM, 10 days, read-out: reduction in the number of viable cells, HTB-157) is not above 50%. For the same compound, the cytotoxicity at 48 h in series [1] (HTB-157 fetal lung (normal) fibroblasts, 50-100 μM, 48 hours, read-out: decrease in viability of HTB-157 fibroblasts) lay in the range of 20 to 22%. Further, in the series with HTB-157 cells (100 μM 48 hours, then 96 hours without CCDTHT), the “reversibility: proliferation in fresh medium after treatment, HTB-157” value is “clearly resumed proliferation”. Also, in the series with HTB-157 cells (100 μM, 48 hours), the “decrease in DNA synthesis, HTB-157 fibroblasts” value is on record as “about 16%”. For the same compound, the “numbers of re-plated untreated and treated HTB-157 fibroblasts” value with HTB-157 cells (100 μM, re-plated after treatment) is recorded as “practically no difference”. In addition, the “decrease in viability of HTB-157 fibroblasts” value in the series on HTB-157 cells (50-100 μM, 48 hours, MTT) is recorded as 19-20%. Moreover, the “sensitivity compared with HaCaT cells, HTB-157 fibroblasts” value in the series on HTB-157 cells (50 and 100 μM, 72 hours, MTT) was “significantly less sensitive”. The “number of viable CCF-STTG1 cells” value in the series with CCF-STTG1 cells is reported as “sharply decrease”. Moreover, the “decrease in the number of viable cells versus 0.5 mM HC-3, AN3CA” value in the series on AN3CA cells is listed as “much greater decreases in the number of viable cells compared to 0.5 mM HC-3”. The weight loss result in series [2] (50-400 μmole s.c. once daily) is listed as “In none of the cases did CCDTHT cause significant weight loss”. The “growth of each tumor (HL-60, HT-168, PC-3, T47D)” value in series [2] (200-400 μmole s.c. once daily) is “considerably reduced”.

For the origin of these results see patent publication US7943606B2, “Compositions and methods to control abnormal cell growth” (CanCure Laboratories, LLC, priority 2005, dated 2011).
